Measurements as given in patent US9944591B2, “Active compound and related composition for dermatological use in the pharmaceutical or cosmetic field” (GIULIANI S.P.A., priority 2014, dated 2018).

Columns and labels:
[1] = test system: ROS (reactive oxygen species); assay: Production of ROS by DCFH-DA assay (H2O2-induced oxidative stress); type: cell-based, human
TNF-α = assay: Anti-inflammatory effects through gene expression of TNF-alpha on keratinocytes (qRT-PCR); type: cell-based; details: human keratinocytes NCTC 2544, 5 μM, 24 h, LPS 5 μg/ml; FIG. 3
Description: In such further test, an immortalized line of human keratinocytes NCTC 2544 is used (Perry V. P. et al., 1957) cultured in sterile flasks ([…]), incubated at 37° C. in a humid atmosphere at 5% CO2 in culture medium MEM (Minimum Essential Medium) supplemented with 10% fetal bovine serum (FBS), 2 mM glutamine, 1% non-essential amino acids, in the presence of 1% penicillin and streptomycin.
When the cells (human keratinocytes NCTC 2544) reached about 80% confluence, they were detached with trypsin/EDTA and seeded at a density of 1×10^6 cells/ml in 12-well plates and incubated at 37° C., 5% CO2 (24 h). […]
The effect of the compounds object of the study on the gene expression of TNF-α was evaluated by quantitative RT-PCR (quantitative reverse transcription-polymerasechainreaction-qRT-PCR). […]
Using a spectrophotometer (Jenway UV/VIS MOD: 6715, BS-6715B0), concentrations were calculated in μg/mL of total RNA extracted at a wavelength of 260 nm.
(§1) Finally, the integrity of RNA (2 μg/mL) was assessed by means of an electrophoresis run on 1% agarose gel. […]
(§2) Extracted and quantified RNA was diluted to a concentration of 2 μg/mL and reverse transcribed into cDNA. […]

[2] = test system: HAS1 (Hyaluronan Synthase 1); assay: Gene expression of HAS1 (hyaluronan synthase 1) on fibroblasts (qRT-PCR); type: cell-based; details: BALB3T3 mouse fibroblasts, 24 h, 2.5 and 5 μM, FIG. 4
Description: In this third test, the mouse fibroblast cell line Balb 3T3 Clone A31 (ATCC CCL-163™) (Aaronson and Todaro, 1968) was used, cultured in sterile flasks ([…]), incubated at 37° C. in a humid atmosphere at 5% CO2 in DMEM (Dulbecco's Modified Eagle's Medium) added with 10% bovine fetal serum (CBS), 1% non-essential amino acids, in the presence of 1% penicillin and streptomycin.
The 1:3 split is done every 2 days upon achieving the monolayer by washing with 1×PBS (phosphate buffer without Ca^2+ and Mg^2+) and detachment of cells with a trypsin-EDTA solution at 37° C. for 2 minutes. […]
Gene expression of HAS1 in BALB3T3 cells was evaluated by relative quantitative RT-PCR (quantitative reverse transcription-polymerase chain reaction-qRT-PCR). […]
At the end of incubation with the active compounds of interest, cells were washed with PBS (1×) and finally subjected to RNA extraction procedure. At the end of the extraction, using a spectrophotometer (Jenway UV/VIS MOD: 6715, BS-6715B0), concentrations were calculated in μg/mL of total RNA extracted at a wavelength of 260 nm.
as §1, §2
The Taqman probe is a type of probe that allows the development of fluorescence as the amplification advances. […]

C/C=C/C=C/C=C/C(=O)NCCCC(=O)O [compound of the invention, 4-((2E,4E,6E)-octa-2,4,6-trienamid)butanoic acid]
% ROS produced/Ctr, compared to GABA ([1]; human keratinocytes NCTC2544, 0.5 μM, versus comparison compound GABA at same concentration, FIG. 2): superior antioxidant activity
% ROS produced/Ctr (antioxidant activity) ([1]; human keratinocytes NCTC2544, 16 h pre-treatment at 0.5 μM, 1 μM, 5 μM, then 1 mM H2O2 90 min, FIG. 1): antioxidant activity
gene expression of TNF-α (2-ΔΔCt) compared to positive control (TNF-α): reduced expression of TNF-α
gene expression of HAS1 compared to reference compound GABA ([2]; versus GABA): higher than the reference compound at both concentrations tested
gene expression of HAS1 (2^−ΔΔCt) [2]: increased gene expression of HAS1
